# Patent US8853227B2, “Methotrexate adjuvants to reduce toxicity and methods for using the same” (Tosk, Incorporated, priority 2008, dated 2014)
# Legend:
# [1] = system: CCRF-CEM cells; test: Cell Culture Study I (MTX cytotoxicity, alamarBlue); format: cell-based, human; settings: 72 hours
# Experimental: In this study, CCRF-CEM cells purchased from ATCC were cultured and then 12 tubes containing approximately 10^6 cells each treated for 72 hours with media (Group1), MTX 0.03 μM (Group2), MTX+Leucovorin 1 μM (Group3), MTX+Leucovorin 10 μM (Group4), MTX+Leucovorin 100 μM (GroupS), MTX+TK-112690 1 μM (Group6), MTX+TK-112690 10 μM (Group7) and MTX+TK-112690 100 μM (Group8). […] Viability was measured as percent reduction of alamarBlue absorbance.
# The tumor cell line CCR-CEM (human T-cell acute lymphoblastic leukemia) is obtained from American Type Culture Collection (CRL-1593.2) and cultured in accordance with the product information sheet with the following exceptions: 55.3 cm^2 Petri dishes are used instead of 75 cm^2 culture flasks, and 1% penicillin-streptomycin solution (HyClone SV30010) and 1% GlutaMAX™ (Gibco 35050) are added to the culture medium.
# TK-112690, the representative 2,2′-anhydropyrimidine test article, is dissolved in 40% DMSO, sterile filtered then diluted with sterile distilled water to obtain initial working solutions of 10, 100 and 1000 μM. In testing, a 100 fold dilution is made in culture media to give final assay concentrations of 0.1, 1.0 and 10.0 μM. MTX (SAFC Biosciences M8407) is dissolved in sterile distilled water and 5 N NaOH then sterile filtered. The final pH of the stock solution is 7.8 and working solutions are made with sterile distilled water for final assay concentrations of 30, 3.0, 0.3, 0.03 and 0.003 μM. Leucovorin (Sigma F-7878) is dissolved in sterile distilled water, sterile filtered and diluted with sterile distilled water for final assay concentrations of 0.1, 1.0 and 10.0 μM.
# Aliquots of 100 μL of cell suspension are plated in 96 well microtiter plates (Corning costar 3595) and placed in an atmosphere of 5% CO2 at 37° C. (Fisher Scientific Isotemp 3500 CO2 Incubator). After 24 hours, 100 μL of growth medium [RPMI-1640 w/L-glutamine (Cambrex 12-702Q) fortified with sodium pyruvate (HyClone SH30239.01), fetal bovine serum (SAFC Biosciences 12107C) and HEPES buffer (Gibco 15630)] and 2 μL of test solution or vehicle are added respectively per well and the plates incubated for an additional 72 hour incubation. MTX is evaluated at concentrations of 0.003, 0.03, 0.30 and 3.0 μM alone or in combination with either a 2,2′-anhydropyrimidine test article or Leucovorin at concentrations of 0.1, 1.0, 10.0 μM. At the end of incubation, the efficacy of anti-cell proliferation is determined by optical absorbance at A=570 and 600 nm [Spectramax 250 (Molecular Devices)] in accordance with the standard alamarBlue™ (Biosource) protocol.
# Group 1 is the cell control (media treated). Group 2 corresponds to cells treated with 0.03 μM MTX. Group 3 are cells treated with 1.0 μM Leucovorin. Group 4 are cells treated with 0.1 μM Leucovorin. […]
# [2] = system: Drosophila melanogaster; test: Fly Study I (protection from MTX-induced lethality); format: in vivo; settings: for Flies Alive (Number): Fly Study I method, test compound + MTX (MTX Alone: no adjuvant), Table 3
# Experimental: In this study, Drosophila melanogaster eggs (50 eggs per vial) were treated with either 0.005 mg TK-112690+0.4 mg MTX (Group 1), 0.01 mg TK-112690+0.4 mg MTX (Group 2), 0.04 mg TK-112690+0.4 mg MTX (Group 3), 0.1 mg TK-112690+0.4 mg MTX (Group 4), 0.4 mg MTX alone (Group 5) or saline blank (Group 6). Two vials of eggs for each dose group were evaluated for viability (viable flies plus pupae).
# The efficacy of cancer chemotherapy can be improved if agents are available to reduce the adverse events associated with treatment with cytotoxic agents. To this end, Drosophila melanogaster (commonly know as the fruit fly) is an ideal organism to screen chemical compounds for such side-effect-reducing agents. This study is aimed at finding a dose of a 2,2′-anhydropyrimidine test article that protects against MTX-induced lethality in insects.
# Increasing amounts of a 2,2′-anhydropyrimidine test article (typically 0.03 to 0.1 mg) are mixed in an aqueous solution with 0.3 (or 0.4) mg MTX. Four milliliters (mL) of a 2,2′-anhydropyrimidine test article+MTX solutions are added to an appropriate amount of instant fly medium. Fruit fly eggs are added to a 2,2′-anhydropyrimidine test article+MTX treated medium and incubated for up to 31 days. After the 31 day incubation, each assay is scored by the number of mature fly and pupae per vial.
# The assays are set up in clear sterile polystyrene narrow diameter vials from Applied Scientific (Hampton, N.H.). Vials are stored in trays and incubated in a darkened 25° C. incubator.
# Reagents and materials used are: 50 mg/mL MTX in H2O (pH 8), 20 mg/mL of the 2,2′-anhydropyrimidine test article in H2O, water, sterile polystyrene narrow diameter vials from Applied Scientific, Instant Drosophila Food Medium, Oregon-R Drosophila melanogaster, 25° C. incubator, and 15 mL polystyrene conical tubes
# Each assay is performed in a separate fly vial. Increasing amounts of a 2,2′-anhydropyrimidine (0.005 to 1.0 mg) are tested for MTX side-effect-reduction on fly eggs. Amounts of the 2,2′-anhydropyrimidine test article are drawn from a 20 mg/mL stock solution dissolved in water. Nine mL of the 2,2′-anhydropyrimidine+0.3 (or 0.4) mg MTX solutions are pre-mixed with water in a 15 mL conical tube. Duplicate assays receive 4 mL of the 2,2′-anhydropyrimidine test article+0.3 (or 0.4) mg MTX solutions. Pre-measured amounts of instant drosophila medium are added to each assay to achieve optimal hydration level. Controls are (1) 4 mL water alone and (2) 0.3 (or 0.4) mg MTX alone. Precisely 50 fly eggs aged for ˜18 hours are added to each assay. Assays are capped with a fitted plug and incubated for 30 days in a darkened 25° C. incubator. Assays are scored by the number of dead pupae or adult flies per vial.
Structure (SMILES),Flies Alive (Number) [2],also measured
"Nc1nc2c(c(=O)[nH]1)N(C=O)C(CNc1ccc(C(=O)N[C@@H](CCC(=O)O)C(=O)O)cc1)CN2 (some centres unmarked) [Leucovorin, reference compound]",,"cell viability, Leucovorin+MTX versus MTX alone (protection by positive control) ([1]; 0.03 μM MTX + Leucovorin, p<0.000 and 0.002): statistically different; cell viability, test article alone versus control ([1]; without MTX): not statistically different than control"
O=c1nc2n(cc1NCc1ccccc1)[C@@H]1O[C@H](CO)[C@@H](O)[C@@H]1O2 [TK-000006],0,
CCOCc1cn2c(nc1=O)O[C@H]1[C@H](O)[C@@H](CO)O[C@H]12 [TK-000007],3,
O=c1nc2n(cc1COCc1ccccc1)[C@@H]1O[C@H](CO)[C@@H](O)[C@@H]1O2 [TK-000008],0,
COCc1cn2c(nc1=O)O[C@H]1[C@H](O)[C@@H](CO)O[C@H]12 [TK-000009],5,activity in the Fly model for protection against MTX-induced lethality [2]: active
CC(=N)OCc1cn2c(nc1=O)O[C@H]1[C@H](O)[C@@H](CO)O[C@H]12 [TK-000010],0,
Cc1cn2c(nc1=O)O[C@H]1[C@H](O)[C@@H](CN=[N+]=[N-])O[C@H]12 [TK-000011],0,
Cc1cn2c(nc1=O)O[C@H]1C(O)[C@@H](CF)O[C@H]12 (some centres unmarked) [TK-000015],0,
Cc1ccc(SCc2cn3c(nc2=O)O[C@H]2C(O)[C@@H](CO)O[C@H]23)cc1 (some centres unmarked) [TK-000016],0,
